≈ marks a conversion by molar mass, not a printed value. Where two headings read alike, the source gives them in different places.
Columns and labels:
[1] = cited from earlier work
[2] = 30% aqueous dipotassium hydrogen phosphate
[3] = physchem; conditions: 30% aqueous dipotassium hydrogen phosphate

C/C=C/C=C/C(=O)O [sorbic acid]
solubility in water ([1]; 100° C): approximately 3% | solubility in water ([1]; in words): low solubility | solubility [2]: 15.1 grams per 100 ml of a salt sol | solubility [3]: 79 mg/mL (≈ 705 mM)
